Measurements: PubChem BioAssay (NCI)
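Cells were grown in 96-well plates and exposed to each compound for 48 hours at five concentrations; endpoints were interpolated linearly between bracketing concentrations, or set to the highest concentration if not reached. TGI: concentration producing complete growth inhibition.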

Columns and labels:
Assay in all cases: inhibition of tumour cell growth, NCI panel, 48 h
786-0 renal = test system: 786-0 renal
RPMI-8226 leukemia = test system: RPMI-8226 leukemia
MDA-N = test system: MDA-N
UACC-257 melanoma = test system: UACC-257 melanoma
NCI-H226 lung = test system: NCI-H226 lung
LOX IMVI melanoma = test system: LOX IMVI melanoma
NCI-H460 lung = test system: NCI-H460 lung
NCI-H23 lung = test system: NCI-H23 lung
MOLT-4 leukemia = test system: MOLT-4 leukemia
EKVX NSCLC = test system: EKVX NSCLC
HOP-92 NSCLC = test system: HOP-92 NSCLC
HS 578T breast = test system: HS 578T breast
T-47D breast = test system: T-47D breast
HT29 colon = test system: HT29 colon
HCC-2998 colon = test system: HCC-2998 colon
RXF 393 renal = test system: RXF 393 renal
HOP-62 NSCLC = test system: HOP-62 NSCLC
MCF7 breast = test system: MCF7 breast
PC-3 prostate = test system: PC-3 prostate
CAKI-1 renal = test system: CAKI-1 renal
MDA-MB-231 breast = test system: MDA-MB-231 breast
COLO 205 colon = test system: COLO 205 colon
MDA-MB-435 = test system: MDA-MB-435
HCT-15 colon = test system: HCT-15 colon
SF-295 CNS = test system: SF-295 CNS
NCI-H522 lung = test system: NCI-H522 lung
UACC-62 melanoma = test system: UACC-62 melanoma
SF-539 CNS = test system: SF-539 CNS
SF-268 CNS = test system: SF-268 CNS
U251 CNS = test system: U251 CNS
SNB-19 CNS = test system: SNB-19 CNS
SK-MEL-2 melanoma = test system: SK-MEL-2 melanoma
OVCAR-5 ovarian = test system: OVCAR-5 ovarian
A549 NSCLC = test system: A549 NSCLC
IGROV1 ovarian = test system: IGROV1 ovarian
SW-620 colon = test system: SW-620 colon
SK-OV-3 ovarian = test system: SK-OV-3 ovarian
TK-10 renal = test system: TK-10 renal
MALME-3M melanoma = test system: MALME-3M melanoma
BT-549 breast = test system: BT-549 breast
HL-60(TB) leukemia = test system: HL-60(TB) leukemia
SN12C renal = test system: SN12C renal
CCRF-CEM leukemia = test system: CCRF-CEM leukemia
SR leukemia = test system: SR leukemia
M14 melanoma = test system: M14 melanoma
K-562 leukemia = test system: K-562 leukemia
OVCAR-8 ovarian = test system: OVCAR-8 ovarian
SNB-75 CNS = test system: SNB-75 CNS
OVCAR-3 ovarian = test system: OVCAR-3 ovarian
ACHN renal = test system: ACHN renal
A498 renal = test system: A498 renal
SK-MEL-5 melanoma = test system: SK-MEL-5 melanoma
HCT-116 colon = test system: HCT-116 colon
KM12 colon = test system: KM12 colon
SK-MEL-28 melanoma = test system: SK-MEL-28 melanoma
OVCAR-4 ovarian = test system: OVCAR-4 ovarian
DU-145 prostate = test system: DU-145 prostate
UO-31 renal = test system: UO-31 renal

CC(C)c1ccc(/C=C2\N=C(c3ccc([N+](=O)[O-])cc3)OC2=O)cc1
TGI (786-0 renal): > 100 µM | TGI (RPMI-8226 leukemia): > 100 µM | TGI (MDA-N): > 100 µM | TGI (UACC-257 melanoma): > 100 µM | TGI (NCI-H226 lung): > 100 µM | TGI (LOX IMVI melanoma): > 100 µM | TGI (NCI-H460 lung): > 100 µM | TGI (NCI-H23 lung): > 100 µM | TGI (MOLT-4 leukemia): > 100 µM | TGI (EKVX NSCLC): > 100 µM | TGI (HOP-92 NSCLC): > 100 µM | TGI (HS 578T breast): > 100 µM | TGI (T-47D breast): > 100 µM | TGI (HT29 colon): > 100 µM | TGI (HCC-2998 colon): > 100 µM | TGI (RXF 393 renal): > 100 µM | TGI (HOP-62 NSCLC): > 100 µM | TGI (MCF7 breast): > 100 µM | TGI (PC-3 prostate): > 100 µM | TGI (CAKI-1 renal): > 100 µM | TGI (MDA-MB-231 breast): > 100 µM | TGI (COLO 205 colon): > 100 µM | TGI (MDA-MB-435): > 100 µM | TGI (HCT-15 colon): > 100 µM | TGI (SF-295 CNS): > 100 µM | TGI (NCI-H522 lung): > 100 µM | TGI (UACC-62 melanoma): > 100 µM | TGI (SF-539 CNS): > 100 µM | TGI (SF-268 CNS): > 100 µM | TGI (U251 CNS): > 100 µM | TGI (SNB-19 CNS): > 100 µM | TGI (SK-MEL-2 melanoma): > 100 µM | TGI (OVCAR-5 ovarian): > 100 µM | TGI (A549 NSCLC): > 100 µM | TGI (IGROV1 ovarian): > 100 µM | TGI (SW-620 colon): > 100 µM | TGI (SK-OV-3 ovarian): > 100 µM | TGI (TK-10 renal): > 100 µM | TGI (MALME-3M melanoma): > 100 µM | TGI (BT-549 breast): > 100 µM | TGI (HL-60(TB) leukemia): > 100 µM | TGI (SN12C renal): > 100 µM | TGI (CCRF-CEM leukemia): > 100 µM | TGI (SR leukemia): > 100 µM | TGI (M14 melanoma): > 100 µM | TGI (K-562 leukemia): > 100 µM | TGI (OVCAR-8 ovarian): > 100 µM | TGI (SNB-75 CNS): > 100 µM | TGI (OVCAR-3 ovarian): > 100 µM | TGI (ACHN renal): > 100 µM | TGI (A498 renal): > 100 µM | TGI (SK-MEL-5 melanoma): > 100 µM | TGI (HCT-116 colon): > 100 µM | TGI (KM12 colon): > 100 µM | TGI (SK-MEL-28 melanoma): > 100 µM | TGI (OVCAR-4 ovarian): > 100 µM | TGI (DU-145 prostate): > 100 µM

C=C1C(=O)OC2/C=C(/CO)C3(O)CC(O)C(C)(CC(OC(=O)/C(C)=C/C)C12)O3 (stereo not given)
TGI (786-0 renal): 52.3 µM | TGI (RPMI-8226 leukemia): 7.5 µM | TGI (MDA-N): > 61 µM | TGI (UACC-257 melanoma): 39 µM | TGI (NCI-H226 lung): 51.5 µM | TGI (LOX IMVI melanoma): 25.9 µM | TGI (NCI-H460 lung): 48.9 µM | TGI (NCI-H23 lung): 42.9 µM | TGI (MOLT-4 leukemia): 9.95 µM | TGI (EKVX NSCLC): 48.5 µM | TGI (HOP-92 NSCLC): 30.6 µM | TGI (HS 578T breast): > 100 µM | TGI (T-47D breast): 39.9 µM | TGI (HT29 colon): 25 µM | TGI (HCC-2998 colon): 29 µM | TGI (RXF 393 renal): 12.6 µM | TGI (HOP-62 NSCLC): > 100 µM | TGI (MCF7 breast): 23.9 µM | TGI (PC-3 prostate): 83.9 µM | TGI (CAKI-1 renal): 11.6 µM | TGI (MDA-MB-231 breast): 34.6 µM | TGI (COLO 205 colon): 14.7 µM | TGI (MDA-MB-435): > 57.1 µM | TGI (HCT-15 colon): 31.6 µM | TGI (SF-295 CNS): > 73 µM | TGI (NCI-H522 lung): 7.32 µM | TGI (UACC-62 melanoma): 21 µM | TGI (UO-31 renal): > 67.2 µM | TGI (SF-539 CNS): 61.4 µM | TGI (SF-268 CNS): > 59.9 µM | TGI (U251 CNS): 48.7 µM | TGI (SNB-19 CNS): > 100 µM | TGI (SK-MEL-2 melanoma): > 66.1 µM | TGI (OVCAR-5 ovarian): 63.5 µM | TGI (A549 NSCLC): > 74.6 µM | TGI (IGROV1 ovarian): 43.2 µM | TGI (SW-620 colon): 22.3 µM | TGI (SK-OV-3 ovarian): > 61.7 µM | TGI (TK-10 renal): 32.1 µM | TGI (MALME-3M melanoma): 29.8 µM | TGI (BT-549 breast): 18.3 µM | TGI (HL-60(TB) leukemia): > 23 µM | TGI (SN12C renal): 32.9 µM | TGI (CCRF-CEM leukemia): > 24.6 µM | TGI (SR leukemia): > 26.1 µM | TGI (M14 melanoma): > 58.3 µM | TGI (K-562 leukemia): > 100 µM | TGI (OVCAR-8 ovarian): 45.2 µM | TGI (SNB-75 CNS): > 100 µM | TGI (OVCAR-3 ovarian): > 67.8 µM | TGI (ACHN renal): 25 µM | TGI (A498 renal): 50.2 µM | TGI (SK-MEL-5 melanoma): 54.6 µM | TGI (HCT-116 colon): > 44.7 µM | TGI (KM12 colon): 42 µM | TGI (SK-MEL-28 melanoma): 49.5 µM | TGI (OVCAR-4 ovarian): > 62.9 µM | TGI (DU-145 prostate): 41.4 µM
